≈ marks a conversion by molar mass, not a printed value. Where two headings read alike, the source gives them in different places.
Experiment: Approximate solubility of pomalidomide at 50°C in 96 solvent compositions (LC)
Format: physicochemical
Conditions: organic solvent or mixture, thermodynamic from solid
Protocol: Pomalidomide Solid Form Preparations: Preparation of solid form of pomalidomide was conducted by equilibrating pomalidomide in 96 solvent compositions at 50°C and subjected to four conditions: slurry, evaporation, cooling, and precipitation. […] Solvents were then added, as binary gradients consisting of main solvent and co-solvent, to give a total of 150 µl, in each of the 96 vials (see Table 6 for the exact composition of each vial). […] For each of the evaporation, precipitation, and cooling experiments, approximately 8 mg of a solid sample of pomalidomide (e.g., Form A) was delivered to each position of the plate. Solvents were added to the master plate, as binary gradients consisting of main solvent and co-solvent, to give a total volume of 800 µT in each of the 96 vials (see Table 7 for the exact composition of each vial). The master plate, containing pomalidomide and solvents, was then equilibrated by stirring for 2 hours at 50°C. Upon completion of the equilibration cycle, the supernatant was aspirated into a four-tipped needle assembly and transferred to a sealed parallel filtration assembly. The mixtures were forced through the filtration assembly using positive pressure and the filtrates were collected in an array of glass vials. The filtered solutions were subsequently aspirated into the four-tipped assembly and aliquots were dispensed to an array of glass vials for subsequent LC analysis to determine approximate concentrations of pomalidomide in each solvent composition at the beginning of the experiments (Table 8). Both the four-tipped needle assembly and filtration assembly were maintained at the equilibration temperature of 50°C throughout the entire transfer process.
The results correspond to the solvent systems described in Table 7, equilibrated at 50°C for 2 hours. […] The approximate concentrations were determined by LC.

**Q.** Which solubility at 2 h (binary solvent composition (main solvent and co-solvent), 50 °C, solvent system D12 of Table 7, read-out: Approximate Measured Solubility) does the source give for `Nc1cccc2c1C(=O)N(C1CCC(=O)NC1=O)C2=O` (stereo not drawn) [Pomalidomide, 4-amino-2-(2,6-dioxopiperidine-3-yl)isoindoline-1,3-dione] here?
**A.** The solubility at 2 h was 670 µg/mL (≈ 2450 µM).

**Q.** And the solubility at 2 h (binary solvent mixture (main solvent and co-solvent), 50 °C, solvent system D9 of Table 7, read-out: Approximate Measured Solubility)?
**A.** Its solubility at 2 h is 1630 µg/mL (≈ 5970 µM).

**Q.** And the solubility at 2 h (binary solvent mixture (main solvent and co-solvent), 50 °C, solvent system E1 of Table 7, read-out: Approximate Measured Solubility)?
**A.** Its solubility at 2 h is 1600 µg/mL (≈ 5860 µM).

**Q.** And the solubility at 2 h (binary solvent mixture (main solvent and co-solvent), 50 °C, solvent system E2 of Table 7, read-out: Approximate Measured Solubility)?
**A.** Its solubility at 2 h is 690 µg/mL (≈ 2530 µM).

**Q.** And the solubility at 2 h (binary solvent mixture (main solvent and co-solvent), 50 °C, solvent system E3 of Table 7, read-out: Approximate Measured Solubility)?
**A.** Its solubility at 2 h is 320 µg/mL (≈ 1170 µM).

**Q.** What about the solubility at 2 h (binary solvent mixture (main solvent and co-solvent), 50 °C, solvent system E4 of Table 7, read-out: Approximate Measured Solubility) of the same molecule?
**A.** The solubility at 2 h was 130 µg/mL (≈ 476 µM).

**Q.** And the solubility at 2 h (binary solvent mixture (main solvent and co-solvent), 50 °C, solvent system E5 of Table 7, read-out: Approximate Measured Solubility)?
**A.** Its solubility at 2 h is 20 µg/mL (≈ 73.2 µM).

**Q.** And the solubility at 2 h (binary solvent mixture (main solvent and co-solvent), 50 °C, solvent system E7 of Table 7, read-out: Approximate Measured Solubility)?
**A.** The solubility at 2 h was 20 µg/mL (≈ 73.2 µM).

**Q.** And the solubility at 2 h (binary solvent mixture (main solvent and co-solvent), 50 °C, solvent system E8 of Table 7, read-out: Approximate Measured Solubility)?
**A.** Its solubility at 2 h is 730 µg/mL (≈ 2670 µM).

**Q.** What about the solubility at 2 h (binary solvent mixture (main solvent and co-solvent), 50 °C, solvent system E9 of Table 7, read-out: Approximate Measured Solubility) of the same molecule?
**A.** Its solubility at 2 h is 1630 µg/mL (≈ 5970 µM).

**Q.** What about the solubility at 2 h (binary solvent mixture (main solvent and co-solvent), 50 °C, solvent system E10 of Table 7, read-out: Approximate Measured Solubility) of the same molecule?
**A.** The solubility at 2 h was 2310 µg/mL (≈ 8450 µM).

**Q.** What about the solubility at 2 h (binary solvent mixture (main solvent and co-solvent), 50 °C, solvent system E11 of Table 7, read-out: Approximate Measured Solubility) of the same molecule?
**A.** Its solubility at 2 h is 2480 µg/mL (≈ 9080 µM).

**Q.** And the solubility at 2 h (binary solvent mixture (main solvent and co-solvent), 50 °C, solvent system E12 of Table 7, read-out: Approximate Measured Solubility)?
**A.** The solubility at 2 h was 950 µg/mL (≈ 3480 µM).

**Q.** What about the solubility at 2 h (binary solvent mixture (main solvent and co-solvent), 50 °C, solvent system F1 of Table 7, read-out: Approximate Measured Solubility) of the same molecule?
**A.** Its solubility at 2 h is 100 µg/mL (≈ 366 µM).

**Q.** What about the solubility at 2 h (binary solvent mixture (main solvent and co-solvent), 50 °C, solvent system F2 of Table 7, read-out: Approximate Measured Solubility) of the same molecule?
**A.** The solubility at 2 h was 60 µg/mL (≈ 220 µM).

**Q.** What about the solubility at 2 h (binary solvent mixture (main solvent and co-solvent), 50 °C, solvent system F3 of Table 7, read-out: Approximate Measured Solubility) of the same molecule?
**A.** The solubility at 2 h was 30 µg/mL (≈ 110 µM).

**Q.** And the solubility at 2 h (binary solvent mixture (main solvent and co-solvent), 50 °C, solvent system F4 of Table 7, read-out: Approximate Measured Solubility)?
**A.** The solubility at 2 h was 10 µg/mL (≈ 36.6 µM).

**Q.** And the solubility at 2 h (binary solvent mixture (main solvent and co-solvent), 50 °C, solvent system F7 of Table 7, read-out: Approximate Measured Solubility)?
**A.** Its solubility at 2 h is 40 µg/mL (≈ 146 µM).

**Q.** And the solubility at 2 h (binary solvent mixture (main solvent and co-solvent), 50 °C, solvent system F8 of Table 7, read-out: Approximate Measured Solubility)?
**A.** Its solubility at 2 h is 40 µg/mL (≈ 146 µM).

**Q.** What about the solubility at 2 h (binary solvent mixture (main solvent and co-solvent), 50 °C, solvent system F9 of Table 7, read-out: Approximate Measured Solubility) of the same molecule?
**A.** The solubility at 2 h was 130 µg/mL (≈ 476 µM).

**Q.** What about the solubility at 2 h (binary solvent mixture (main solvent and co-solvent), 50 °C, solvent system F12 of Table 7, read-out: Approximate Measured Solubility) of the same molecule?
**A.** Its solubility at 2 h is 550 µg/mL (≈ 2010 µM).

**Q.** What about the solubility at 2 h (binary solvent mixture (main solvent and co-solvent), 50 °C, solvent system G1 of Table 7, read-out: Approximate Measured Solubility) of the same molecule?
**A.** The solubility at 2 h was 2690 µg/mL (≈ 9840 µM).

**Q.** What about the solubility at 2 h (binary solvent mixture (main solvent and co-solvent), 50 °C, solvent system G2 of Table 7, read-out: Approximate Measured Solubility) of the same molecule?
**A.** The solubility at 2 h was 1650 µg/mL (≈ 6040 µM).

**Q.** What about the solubility at 2 h (binary solvent mixture (main solvent and co-solvent), 50 °C, solvent system G3 of Table 7, read-out: Approximate Measured Solubility) of the same molecule?
**A.** The solubility at 2 h was 700 µg/mL (≈ 2560 µM).

**Q.** And the solubility at 2 h (binary solvent mixture (main solvent and co-solvent), 50 °C, solvent system G4 of Table 7, read-out: Approximate Measured Solubility)?
**A.** The solubility at 2 h was 230 µg/mL (≈ 842 µM).

**Q.** What about the solubility at 2 h (binary solvent mixture (main solvent and co-solvent), 50 °C, solvent system G5 of Table 7, read-out: Approximate Measured Solubility) of the same molecule?
**A.** The solubility at 2 h was 60 µg/mL (≈ 220 µM).

**Q.** And the solubility at 2 h (binary solvent mixture (main solvent and co-solvent), 50 °C, solvent system G7 of Table 7, read-out: Approximate Measured Solubility)?
**A.** Its solubility at 2 h is 30 µg/mL (≈ 110 µM).

**Q.** What about the solubility at 2 h (binary solvent mixture (main solvent and co-solvent), 50 °C, solvent system G8 of Table 7, read-out: Approximate Measured Solubility) of the same molecule?
**A.** Its solubility at 2 h is 410 µg/mL (≈ 1500 µM).

**Q.** What about the solubility at 2 h (binary solvent mixture (main solvent and co-solvent), 50 °C, solvent system G9 of Table 7, read-out: Approximate Measured Solubility) of the same molecule?
**A.** The solubility at 2 h was 650 µg/mL (≈ 2380 µM).

**Q.** What about the solubility at 2 h (binary solvent mixture (main solvent and co-solvent), 50 °C, solvent system G10 of Table 7, read-out: Approximate Measured Solubility) of the same molecule?
**A.** The solubility at 2 h was 2310 µg/mL (≈ 8450 µM).

**Q.** And the solubility at 2 h (binary solvent mixture (main solvent and co-solvent), 50 °C, solvent system G11 of Table 7, read-out: Approximate Measured Solubility)?
**A.** Its solubility at 2 h is 5180 µg/mL (≈ 19000 µM).

**Q.** And the solubility at 2 h (binary solvent mixture (main solvent and co-solvent), 50 °C, solvent system G12 of Table 7, read-out: Approximate Measured Solubility)?
**A.** Its solubility at 2 h is 5990 µg/mL (≈ 21900 µM).

**Q.** What about the solubility at 2 h (binary solvent mixture (main solvent and co-solvent), 50 °C, solvent system H1 of Table 7, read-out: Approximate Measured Solubility) of the same molecule?
**A.** Its solubility at 2 h is 380 µg/mL (≈ 1390 µM).

**Q.** And the solubility at 2 h (binary solvent mixture (main solvent and co-solvent), 50 °C, solvent system H2 of Table 7, read-out: Approximate Measured Solubility)?
**A.** Its solubility at 2 h is 240 µg/mL (≈ 878 µM).

**Q.** And the solubility at 2 h (binary solvent mixture (main solvent and co-solvent), 50 °C, solvent system H3 of Table 7, read-out: Approximate Measured Solubility)?
**A.** Its solubility at 2 h is 110 µg/mL (≈ 403 µM).

**Q.** What about the solubility at 2 h (binary solvent mixture (main solvent and co-solvent), 50 °C, solvent system H4 of Table 7, read-out: Approximate Measured Solubility) of the same molecule?
**A.** The solubility at 2 h was 40 µg/mL (≈ 146 µM).

**Q.** What about the solubility at 2 h (binary solvent mixture (main solvent and co-solvent), 50 °C, solvent system H7 of Table 7, read-out: Approximate Measured Solubility) of the same molecule?
**A.** Its solubility at 2 h is 50 µg/mL (≈ 183 µM).

**Q.** And the solubility at 2 h (binary solvent mixture (main solvent and co-solvent), 50 °C, solvent system H8 of Table 7, read-out: Approximate Measured Solubility)?
**A.** Its solubility at 2 h is 400 µg/mL (≈ 1460 µM).

**Q.** And the solubility at 2 h (binary solvent mixture (main solvent and co-solvent), 50 °C, solvent system H10 of Table 7, read-out: Approximate Measured Solubility)?
**A.** The solubility at 2 h was 1500 µg/mL (≈ 5490 µM).

**Q.** And the solubility at 2 h (binary solvent mixture (main solvent and co-solvent), 50 °C, solvent system H11 of Table 7, read-out: Approximate Measured Solubility)?
**A.** Its solubility at 2 h is 1960 µg/mL (≈ 7170 µM).

**Q.** What about the solubility at 2 h (binary solvent mixture (main solvent and co-solvent), 50 °C, solvent system H12 of Table 7, read-out: Approximate Measured Solubility) of the same molecule?
**A.** The solubility at 2 h was 2060 µg/mL (≈ 7540 µM).

**Q.** What about the solubility at 2 h (solvent system H9 of Table 7, read-out: Approximate Measured Solubility) of the same molecule?
**A.** Its solubility at 2 h is 860 µg/mL (≈ 3150 µM).

**Q.** And the solubility at 2 h (solvent system A1 of Table 7, 50 °C, solvent system A1 of Table 7, read-out: Approximate Measured Solubility)?
**A.** Its solubility at 2 h is 2240 µg/mL (≈ 8200 µM).

**Q.** What about the solubility at 2 h (solvent system A2 of Table 7, 50 °C, solvent system A2 of Table 7, read-out: Approximate Measured Solubility) of the same molecule?
**A.** The solubility at 2 h was 8190 µg/mL (≈ 30000 µM).

**Q.** And the solubility at 2 h (solvent system A3 of Table 7, 50 °C, solvent system A3 of Table 7, read-out: Approximate Measured Solubility)?
**A.** The solubility at 2 h was 2430 µg/mL (≈ 8890 µM).

**Q.** What about the solubility at 2 h (solvent system A10 of Table 7, 50 °C, solvent system A10 of Table 7, read-out: Approximate Measured Solubility) of the same molecule?
**A.** Its solubility at 2 h is 1830 µg/mL (≈ 6700 µM).

**Q.** And the solubility at 2 h (solvent system A11 of Table 7, 50 °C, solvent system A11 of Table 7, read-out: Approximate Measured Solubility)?
**A.** The solubility at 2 h was 290 µg/mL (≈ 1060 µM).

**Q.** And the solubility at 2 h (solvent system A12 of Table 7, 50 °C, solvent system A12 of Table 7, read-out: Approximate Measured Solubility)?
**A.** The solubility at 2 h was 80 µg/mL (≈ 293 µM).
